Assays:
NQO1 [1] = biological target: T1, NQO1 (Homo sapiens, UniProt P15559); assay: Selectivity of NQ-DCP towards hNQO1 over other biomolecules/enzymes; assay type: biochemical; settings: 10 μM probe, 30 min; GSH, ALDH1A1, GGT, GPx, APE1, CBS, CTSL, GST-pi, NTR, NADH
Experimental: Selectivity of NQ-DCP Towards hNQO1. The specificity of NQ-DCP probe towards hNQO1 was studied by determining its reactivity towards various biomolecules such as the glutathione (GSH, 1 mM), aldehyde dehydrogenase 1 (ALDH1A1, 2.5 μg/mL), gamma-glutamyl transferase (GGT, 10 U), glutathione Peroxidase (GPx, 10 U), apurinic/apyrimidinic endonuclease (APE1, 10 U), cystathionine-β-synthase (CBS, 2 μg/mL), cathepsin L (CTSL, 2 μg/mL), glutathione S-transferase (GST-pi, 2 μg/mL), nitroreductase (NTR, 2 μg/mL) and NADH (100 μM) alone or the combination of and NQO1 (2.5 μg/mL). […] To gain more insight into the specificity of the probe towards hNQO1, the enzyme was pre-treated with ES936 (0-100 nM), a well-known hNQO1 inhibitor [39] and then incubated with NQ-DCP.
Selectivity Evaluation. To study the interference, NQ-DCP was incubated with various biologically relevant analytes such as thiols and other enzymes for 30 min with or without the addition of 100 μM NADH. Fluorescence spectra were analyzed to determine NQ-DCP specificity against hNQO1.

[2] = system: normal (astrocytes) cells; assay: Fluorescence microscopy of NQ-DCP in hNQO1 negative normal cells; assay type: cell-based; settings: 10 μM, 60 min
Experimental: Visualization of Cancer Cells by Fluorescence Imaging of hNQO1. […] The cytotoxicity of NQ-DCP was initially evaluated in cultured brain tumor (DAOY, T98G, and U87MG) and normal (astrocytes) cells to assess its biocompatibility using the resazurin reduction assay. […] Cells were incubated with NQ-DCP (10 μM) for 60 min, washed with PBS and were imaged under a fluorescence microscope.
Cell Culture, Fluorescence Imaging, and Flow Cytometry Analysis. Brain tumor cells and astrocytes were grown in Dulbecco's modified Eagle's (DMEM) medium containing 10% Fetal Bovine Serum and 1% penicillin/streptomycin in a humidified atmosphere of 5% CO2 at 37° C. For fluorescence imaging, initially, cells were seeded into 6-well plate and cultured overnight in respective media at 37° C. Media was replaced with fresh medium containing 10 μM NQ-DCP and incubated at 37° C. for 60 min and then the medium was replaced with PBS and live cells were imaged using a fluorescence microscope. For inhibitor study, cells were pretreated with NQO1 inhibitor ES936 (100 nM) for 6 h before adding the NQ-DCP. For determining endogenous hNQO1 activity in cancer cells using flow cytometry, about 10×10^4 cells were incubated with 10 μM of NQ-DCP for 60 min and were analyzed using flow cytometry.

A549, H460 cells = assay: Fluorescence microscopy of NIR-ASM in NQO1 expressing cancer cells; assay type: cell-based, human
Experimental: (§1) Detection of NQO1 in live cells. Inspired by the excellent biocompatibility, the inventors investigated its performance in both NQO1 expressing cancer cells (A549, H460) and NQO1 non-expressing normal cells (IMR90, HUVEC). All cells were incubated with NIR-ASM (10 μM) for 60 min, washed with PBS and were imaged under a confocal microscope after counterstaining the nuclei with Hoechst 33342 (FIG. 12A). […] The higher expression of NQO1 protein in A549 and H460 cells and its absence in normal cells, IMR90 and HUVEC as found with western blot analysis correlated with the probe reactivity in cells (FIG. 12B). […] Cell sorting using flow cytometry is a well-established technology in clinical diagnostics and biomedical research. To assess the applicability of the NIR-ASM to rapidly detect and quantify in both cancer and normal cells based on NQO1 expression, the probe was incubated with cell suspensions for 60 min, and about 1×10^4 cells were analyzed on a flow cytometer.
(§2) Fluorescence imaging. Both cancer and normal cells were seeded into 6-well plates and cultured overnight in respective media at 37° C. Cells were treated with 10 μM NIR-ASM and incubated at 37° C. for 60 min. They were then treated with nuclear stain Hoechst 33342 for 5 min. Finally, the medium was replaced with PBS and the live cells were imaged using a multiphoton confocal fluorescence microscope (λex/em=488/644 nm). […]

IMR90, HUVEC cells = assay: Fluorescence microscopy of NIR-ASM in NQO1 non-expressing normal cells; assay type: cell-based, human; settings: 10 μM, 60 min
Experimental: as §1, §2

NQO1 [3] = biological target: T1, NQO1; assay: Kinetics of NQO1 towards NIR-ASM (Michaelis-Menten); assay type: biochemical; parameters: purchased Sigma-Aldrich D1515; settings: NQO1 2 μg/mL, NADH 100 μM
Experimental: Next, the kinetics of fluorescent product formation was assessed. […] From this experiment, the initial rate of ASM formation, V (μmol min^−1 μg NQO1^−1), was calculated and then plotted as a function of NIR-ASM concentration (FIG. 10C).
Kinetic studies. Kinetic studies were performed using a microplate reader under philological conditions (PBS with 0.1% of BSA at 37° C.). The assay buffer contained 2 μg/mL of NQO1, 100 μM NADH and different concentrations of NIR-ASM (0-100 μM) in a total volume of 100 μL. Time-dependent fluorescence measurements were carried out to monitor the release of ASM by NQO1 activation of NIR-ASM (λex/em 460/646), and the data were collected every minute for 90 minutes. This assay was repeated two times in triplicate and the fluorescence readings were optimized to a standard curve of ASM of known concentration and calculated the velocity in terms of μmol^−1 min^−1 μg NQO1. A plot of the velocities and NIR-ASM concentration was used to obtaining the apparent kinetic parameters Km and Vmax from nonlinear regression analysis and Michaelis-Menton constant using the GraphPad Prism.

T1 sequence (P15559 whole entry): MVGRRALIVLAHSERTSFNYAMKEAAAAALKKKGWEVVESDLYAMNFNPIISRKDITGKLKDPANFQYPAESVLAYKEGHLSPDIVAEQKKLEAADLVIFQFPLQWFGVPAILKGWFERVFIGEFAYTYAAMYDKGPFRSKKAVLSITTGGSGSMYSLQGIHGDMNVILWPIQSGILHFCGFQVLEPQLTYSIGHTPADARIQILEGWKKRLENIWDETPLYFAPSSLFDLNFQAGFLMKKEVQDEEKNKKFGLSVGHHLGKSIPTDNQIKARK

SMILES | selectivity for hNQO1 over the other enzymes/substrates tested (NQO1 [1]) | fluorescence signal in normal cells [2] | fluorescence signal in NQO1 expressing cancer cells (A549, H460 cells; 10 μM, 60 min) | cell permeability (A549, H460 cells; inferred from intracellular activation) | fluorescence signal in normal cells (IMR90, HUVEC cells) | maximum velocity (Vmax) (NQO1 [3])
CC1=C(C)C(=O)C(C(C)(C)CC(=O)Oc2ccc(/C=C/C3=CC(=C(C#N)C#N)CC(C)(C)C3)cc2)=C(C)C1=O [NQ-DCP] | high selectivity | no signals were observed |  |  |  | 
CC1=C(C)C(=O)C(C(C)(C)CC(=O)Nc2ccc(/C=C/C3=CC(=C(C#N)C#N)CC(C)(C)C3)cc2)=C(C)C1=O [NIR-ASM, (E)-N-(4-(2-(3-(dicyanomethylene)-5,5-dimethylcyclohex-1-en-1-yl)vinyl)phenyl)-3-methyl-3-(2,4,5-trimethyl-3,6-dioxocyclohexa-1,4-dien-1-yl)butanamide] |  |  | bright NIR fluorescence signal | confirm the cell permeability | did not show any fluorescence | 0.00419±0.00003 μmol min^−1 mg NQO1^−1

— patent US11957766B2, “HNQO1-activatable fluorescent probe for imaging cancer cells in-vitro and in-vivo” (Texas Tech University System, priority 2019, dated 2024)
